Values joined by “and” are separate entries in the source; they are usually repeats but may differ in a detail not shown here. Equal entries are not always repeated. Where two headings read alike, the source gives them in different places. Ends that are not written are not given here.
Tests used:
[1] = Electronic tongue analysis (Taste-Sensing System SA 402B); parameters: unit not given here; settings: reference solution 30 mM KCl + 0.3 mM tartaric acid as baseline, first measurement excluded; for Umami: sensor AAE; for Umami / Bitter / Sweet: detection threshold 0, room temperature; for Umami / Bitter / Sour / Salty: four replicates; for Sour: detection threshold -13, room temperature; for Salty: detection threshold -6, room temperature; for Sweet: measured five times
How it was run: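 Samples were tested at 0.1 and 1.0 mg/mL on an SA 402B e-tongue fitted with sourness, saltiness, bitterness, sweetness and umami sensors, with 30 mM KCl/0.3 mM tartaric acid as reference and baseline. Thresholds were −13 for sour, −6 for salty and 0 for the rest. Runs at room temperature: four replicates, five for sweetness, first reading discarded.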

[2] = tested on: human pancreatic ductal epithelial cells (HPNE); test: Cell viability assessment (CCK-8), HPNE; settings: CCK-8, mean of Data1-3 (n = 3)
[3] = tested on: human umbilical vein endothelial cells (HUVEC); test: Cell viability assessment (CCK-8), HUVEC; settings: CCK-8, mean of Data1-3 (n = 3)
Description: (§1) The cytotoxicity of 73 synthetic peptides was evaluated using four human cell lines: human pancreatic ductal epithelial cells (HPNE), human embryonic kidney cells (HEK293T), human umbilical vein endothelial cells (HUVEC), and human bronchial epithelial cells (BEAS-2B). When cell density reached 70% confluence, the complete culture medium was replaced with serum-free maintenance medium, and peptides were added at a final concentration of 100 μM for 36 h. Control groups received only serum-free maintenance medium without peptides. Cell proliferation was assessed using the CCK-8 assay kit (Solarbio, CA1210) according to the manufacturer’s instructions.

[4] = tested on: red blood cells from 6-week-old BALB/c mice (mRBCs); test: Hemolysis assay; type: cell-based, mouse; settings: mean of Data1-3; 100 μM peptide, 1.5 × 10^8 cells/mL mRBCs, 37°C, 60 min, absorbance 490 nm; PBS 0% and 1% Triton X-100 100% controls
Description: The hemolytic activity of synthetic peptides was evaluated using red blood cells from 6-week-old BALB/c mice (mRBCs). Freshly isolated mRBCs were washed three times with PBS buffer (8000 rpm, 2 min per wash) to prepare the mRBC suspension. Equal volumes (70 μL) of 200 μM peptide solutions and mRBC suspension were mixed to achieve final concentrations of 100 μM peptide and 1.5 × 10^8 cells/mL mRBCs in the reaction system. After incubation with shaking at 37°C for 60 min, samples were centrifuged at 10000 rpm for 5 min, and hemoglobin release was assessed by measuring the absorbance of the supernatant at 490 nm. PBS and 1% Triton X-100 treatments served as 0% and 100% hemolysis controls, respectively. A complete dataset of hemolytic activity measurements is documented in S4 Data.

[5] = tested on: human embryonic kidney cells (HEK293T); test: Cell viability assessment (CCK-8), HEK293T; settings: CCK-8, mean of Data1-3 (n = 3)
[6] = tested on: human bronchial epithelial cells (BEAS-2B); test: Cell viability assessment (CCK-8), BEAS-2B; settings: BEAS-2B cells, CCK-8, mean of Data1-3 (n = 3)
Description: as §1

[7] = known from earlier studies; cited from earlier work
From the text: To address these experimental challenges, various computational and artificial intelligence-based approaches for taste peptide identification have emerged. Most reported methods focus on predicting single taste properties, such as BERT4Bitter and iBitter-SCM [42] for bitter peptide identification, while iUmami-SCM [43], Umami-MRNN [[44], iUmami-DRLF [45], and Umami-gcForest are dedicated to umami peptide prediction. Additionally, a few models like Umami_YYDS [35] have been reported to perform binary classification for umami and bitter tastes. However, current methodologie ...

[8] = tested on: human umbilical vein endothelial cells (HUVEC)
Description: as §1

[9] = tested on: human bronchial epithelial cells (BEAS-2B)
Description: as §1

[10] = tested on: human embryonic kidney cells (HEK293T)
[11] = tested on: human pancreatic ductal epithelial cells (HPNE)

Row | Substance | Umami ([1]; peptide 0.1 mg/mL) | Umami ([1]; peptide 1 mg/mL) | Bitter ([1]; sensor C00, peptide 0.1 mg/mL) | Bitter ([1]; sensor C00, peptide 1 mg/mL) | Sour ([1]; sensor CA0, peptide 0.1 mg/mL) | Sour ([1]; sensor CA0, peptide 1 mg/mL) | Salty ([1]; sensor CT0, peptide 0.1 mg/mL) | Salty ([1]; sensor CT0, peptide 1 mg/mL) | Sweet ([1]; sensor GL1, peptide 0.1 mg/mL) | Sweet ([1]; sensor GL1, peptide 1 mg/mL) | Average cell viability, HUVEC [8] | Cell viability, HUVEC, Data1 [8] | Cell viability, HUVEC, Data2 [8] | Cell viability, HUVEC, Data3 [8] | Average cell viability, BEAS-2B [9] | Cell viability, BEAS-2B, Data1 [9] | Cell viability, BEAS-2B, Data2 [9] | Cell viability, BEAS-2B, Data3 [9] | Average cell viability, HEK293T [10] | Cell viability, HEK293T, Data1 [10] | other results
1 | EPDDPDD [TaPep27] | 0.54 | -6.01 | 7.42 | 3.79 | -0.70 | 14.83 | -22.39 | 8.93 | 3.39 | -6.25 | – | – | – | – | – | – | – | – | – | – | Average cell viability, HPNE [2]: 91.58; Average cell viability, HUVEC [3]: 94.52; Average hemolysis [4]: 1.02%; Average cell viability, HEK293T [5]: 98.49; Average cell viability, BEAS-2B [6]: 105.85
2 | KGDEESLA | – | – | – | – | – | – | – | – | – | – | – | – | – | – | – | – | – | – | – | – | taste characteristics [7]: both umami and bitter characteristics
3 | VPDELN [TaPep23] | 1.53 | -4.39 | 7.18 | 3.47 | -3.15 | 11.00 | -22.67 | 6.69 | 5.26 | -4.58 | 97.76 | 98.19 | 95.72 | 99.39 | 102.53 | 109.87 | 92.32 | 105.38 | 90.54 | 91.61 | Cell viability, HEK293T, Data2 [10]: 84.89; Cell viability, HEK293T, Data3 [10]: 95.11; Average cell viability, HPNE [11]: 99.63; Cell viability, HPNE, Data1 [11]: 105.82; Cell viability, HPNE, Data2 [11]: 109.52; Cell viability, HPNE, Data3 [11]: 83.56
4 | YAGNAP [TaPep10] | 3.61 | -3.37 | 6.97 | bitterness suppression and -0.80 | -8.60 | 8.97 | -20.44 | 14.02 | 11.07 | -4.53 | 102.47 | 99.31 | 104.50 | 103.62 | 98.84 | 101.69 | 95.01 | 99.80 | 99.40 | 94.83 | Cell viability, HEK293T, Data2 [10]: 102.87; Cell viability, HEK293T, Data3 [10]: 100.50; Average cell viability, HPNE [11]: 95.54; Cell viability, HPNE, Data1 [11]: 97.18; Cell viability, HPNE, Data2 [11]: 94.47; Cell viability, HPNE, Data3 [11]: 94.97
5 | YDGTPLN [TaPep11] | 2.75 | -2.91 | 7.10 | 3.24 | -5.95 | 9.08 | -21.79 | 6.18 | 9.69 | -5.23 | 112.96 | 111.12 | 113.36 | 114.40 | 102.96 | 102.59 | 99.80 | 106.48 | 102.37 | 107.03 | Cell viability, HEK293T, Data2 [10]: 95.68; Cell viability, HEK293T, Data3 [10]: 104.38; Average cell viability, HPNE [11]: 100.63; Cell viability, HPNE, Data1 [11]: 98.34; Cell viability, HPNE, Data2 [11]: 113.51; Cell viability, HPNE, Data3 [11]: 90.05
6 | YGRGV [TaPep12] | 3.01 | -2.86 | 8.03 | 0.75 | -6.74 | 6.59 | -17.83 | 7.54 | 7.49 | -7.92 | 94.89 | 90.77 | 98.75 | 95.16 | 99.57 | 102.99 | 93.52 | 102.19 | 102.93 | 99.46 | Cell viability, HEK293T, Data2 [10]: 109.02; Cell viability, HEK293T, Data3 [10]: 100.32; Average hemolysis [4]: 0.43%; Average cell viability, HPNE [11]: 102.90; Cell viability, HPNE, Data1 [11]: 110.82; Cell viability, HPNE, Data2 [11]: 91.75; Cell viability, HPNE, Data3 [11]: 106.12
7 | YKYHES [TaPep13] | 1.81 | -4.92 | 7.46 | -0.78 | -3.77 | 12.34 | -15.97 | 15.30 | 3.50 | -4.65 | – | – | – | – | – | – | – | – | – | – | Average cell viability, HPNE [2]: 99.43; Average cell viability, HUVEC [3]: 104.44; Average hemolysis [4]: 1.05%; Average cell viability, HEK293T [5]: 95.55; Average cell viability, BEAS-2B [6]: 101.89
8 | YQAENKH [TaPep14] | 3.07 | -3.87 | 7.83 | 0.38 | -6.58 | 9.86 | -18.09 | 13.64 | 7.88 | -4.10 | 95.42 | 102.42 | 90.29 | 93.56 | 116.78 | 112.46 | 118.94 | 118.94 | 98.23 | 95.02 | Cell viability, HEK293T, Data2 [10]: 96.25; Cell viability, HEK293T, Data3 [10]: 103.44; Average cell viability, HPNE [11]: 98.70; Cell viability, HPNE, Data1 [11]: 93.34; Cell viability, HPNE, Data2 [11]: 103.13; Cell viability, HPNE, Data3 [11]: 99.63

Reference: article PMC12543283, “TastepepAI: An artificial intelligence platform for taste peptide de novo design” (PLOS Computational Biology, 2025)
